Measured values: ChEMBL document CHEMBL1275557, “First countrywide survey of acquired metallo-beta-lactamases in gram-negative pathogens in Italy” (2008)
≈ marks a conversion by molar mass, not a printed value.

Legend:
Assay type in all cases: functional
Pseudomonas aeruginosa [1] = experiment: Antibacterial activity against IMP-13 producing Pseudomonas aeruginosa clone C3 isolate PG-12X-03 by Etest method
Pseudomonas aeruginosa [2] = experiment: Antibacterial activity against IMP-13 producing Pseudomonas aeruginosa clone C1 isolate AV-13X-28 by Etest method
Pseudomonas aeruginosa [3] = experiment: Antibacterial activity against VIM-1 producing Pseudomonas aeruginosa clone A3 isolate FG-17X-08 by Etest method
Pseudomonas aeruginosa [4] = experiment: Antibacterial activity against VIM-1 producing Pseudomonas aeruginosa clone A1 isolate FG-17X-14 by Etest method
Pseudomonas aeruginosa [5] = experiment: Antibacterial activity against VIM-1 producing Pseudomonas aeruginosa clone D3 isolate VA-06X-65 by Etest method
Pseudomonas aeruginosa [6] = experiment: Antibacterial activity against VIM-2 producing Pseudomonas aeruginosa clone B2 isolate VA-06X-20 by Etest method
Pseudomonas aeruginosa [7] = experiment: Antibacterial activity against VIM-2 producing Pseudomonas aeruginosa clone B3 isolate PV-05X-07 by Etest method
Pseudomonas aeruginosa [8] = experiment: Antibacterial activity against IMP-13 producing Pseudomonas aeruginosa clone C2 isolate NA-14X-12 by Etest method
Pseudomonas aeruginosa [9] = experiment: Antibacterial activity against VIM-2 producing Pseudomonas aeruginosa clone B1 isolate SS-09X-45 by Etest method
Pseudomonas aeruginosa [10] = experiment: Antibacterial activity against VIM-2 producing Pseudomonas aeruginosa clone B2 isolate VA-06X-28 by Etest method
Pseudomonas aeruginosa [11] = experiment: Antibacterial activity against VIM-1 producing Pseudomonas aeruginosa clone E isolate VA-06X-29 by Etest method
Pseudomonas aeruginosa [12] = experiment: Antibacterial activity against IMP-13 producing Pseudomonas aeruginosa clone C2 isolate NA-14X-10 by Etest method
Pseudomonas aeruginosa [13] = experiment: Antibacterial activity against VIM-2 producing Pseudomonas aeruginosa clone B3 isolate CR-04X-14 by Etest method
Enterobacter cloacae = experiment: Antibacterial activity against VIM-1 producing Enterobacter cloacae isolate TO-16X-51 by Etest method
Pseudomonas aeruginosa [14] = experiment: Antibacterial activity against IMP-13 producing Pseudomonas aeruginosa clone C2 isolate NA-14X-11 by Etest method
Pseudomonas putida = experiment: Antibacterial activity against VIM-1 producing Pseudomonas putida isolate RM-11X-11 by Etest method
Pseudomonas aeruginosa [15] = experiment: Antibacterial activity against VIM-1 producing Pseudomonas aeruginosa clone D4 isolate VA-06X-47 by Etest method
Pseudomonas aeruginosa [16] = experiment: Antibacterial activity against VIM-1 producing Pseudomonas aeruginosa clone D1 isolate VA-06X-63 by Etest method
Pseudomonas aeruginosa [17] = experiment: Antibacterial activity against VIM-1 producing Pseudomonas aeruginosa clone A2 isolate NA-14X-21 by Etest method
Pseudomonas aeruginosa [18] = experiment: Antibacterial activity against VIM-1 producing Pseudomonas aeruginosa clone A2 isolate NA-14X-32 by Etest method
Pseudomonas aeruginosa [19] = experiment: Antibacterial activity against VIM-1 producing Pseudomonas aeruginosa clone G isolate NA-14X-13 by Etest method
Pseudomonas aeruginosa [20] = experiment: Antibacterial activity against VIM-1 producing Pseudomonas aeruginosa clone F isolate RM-11X-09 by Etest method
Pseudomonas aeruginosa [21] = experiment: Antibacterial activity against VIM-1 producing Pseudomonas aeruginosa clone D isolate VA-06X-69 by Etest method
Pseudomonas aeruginosa [22] = experiment: Antibacterial activity against VIM-1 producing Pseudomonas aeruginosa clone A2 isolate NA-14X-26 by Etest method
Pseudomonas aeruginosa [23] = experiment: Antibacterial activity against IMP-13 producing Pseudomonas aeruginosa clone C2 isolate NA-14X-02 by Etest method
Pseudomonas aeruginosa [24] = experiment: Antibacterial activity against VIM-1 producing Pseudomonas aeruginosa clone D2 isolate VA-06X-16 by Etest method
Pseudomonas aeruginosa [25] = experiment: Antibacterial activity against VIM-2 producing Pseudomonas aeruginosa clone B2 isolate VA-06X-38 by Etest method
Pseudomonas aeruginosa [26] = experiment: Antibacterial activity against VIM-1 producing Pseudomonas aeruginosa clone A3 isolate NA-14X-34 by Etest method
Pseudomonas aeruginosa [27] = experiment: Antibacterial activity against VIM-2 producing Pseudomonas aeruginosa clone B3 isolate PV-05X-02 by Etest method
Pseudomonas aeruginosa [28] = experiment: Antibacterial activity against VIM-1 producing Pseudomonas aeruginosa clone D2 isolate VA-06X-17 by Etest method
Pseudomonas aeruginosa [29] = experiment: Antibacterial activity against metallo-beta-lactamase positive Pseudomonas aeruginosa assessed as percent susceptible isolates by Etest method

Row | Compound | MIC (Pseudomonas aeruginosa [1]) | MIC (Pseudomonas aeruginosa [2]) | MIC (Pseudomonas aeruginosa [3]) | MIC (Pseudomonas aeruginosa [4]) | MIC (Pseudomonas aeruginosa [5]) | MIC (Pseudomonas aeruginosa [6]) | MIC (Pseudomonas aeruginosa [7]) | MIC (Pseudomonas aeruginosa [8]) | MIC (Pseudomonas aeruginosa [9]) | MIC (Pseudomonas aeruginosa [10]) | MIC (Pseudomonas aeruginosa [11]) | MIC (Pseudomonas aeruginosa [12]) | MIC (Pseudomonas aeruginosa [13]) | MIC (Enterobacter cloacae) | MIC (Pseudomonas aeruginosa [14]) | MIC (Pseudomonas putida) | MIC (Pseudomonas aeruginosa [15]) | MIC (Pseudomonas aeruginosa [16]) | MIC (Pseudomonas aeruginosa [17]) | MIC (Pseudomonas aeruginosa [18]) | other results
1 | CC(C)(O/N=C(\C(=O)N[C@@H]1C(=O)N2C(C(=O)[O-])=C(C[n+]3ccccc3)CS[C@H]12)c1csc(N)n1)C(=O)O [CEFTAZIDIME] | > 128 µg/mL | > 128 µg/mL | > 128 µg/mL | > 128 µg/mL | > 128 µg/mL | 64 µg/mL (≈ 117 µM) | 32 µg/mL (≈ 58.5 µM) | > 128 µg/mL | > 128 µg/mL | 64 µg/mL (≈ 117 µM) | > 128 µg/mL | > 128 µg/mL | 64 µg/mL (≈ 117 µM) | > 128 µg/mL | > 128 µg/mL | > 128 µg/mL | > 128 µg/mL | > 128 µg/mL | > 128 µg/mL | > 128 µg/mL | MIC (Pseudomonas aeruginosa [19]): > 128 µg/mL; MIC (Pseudomonas aeruginosa [20]): > 128 µg/mL; MIC (Pseudomonas aeruginosa [21]): > 128 µg/mL; MIC (Pseudomonas aeruginosa [22]): > 128 µg/mL; MIC (Pseudomonas aeruginosa [23]): > 128 µg/mL; MIC (Pseudomonas aeruginosa [24]): > 128 µg/mL; MIC (Pseudomonas aeruginosa [25]): 48 µg/mL (≈ 87.8 µM); MIC (Pseudomonas aeruginosa [26]): > 128 µg/mL; MIC (Pseudomonas aeruginosa [27]): 32 µg/mL (≈ 58.5 µM); MIC (Pseudomonas aeruginosa [28]): > 128 µg/mL
2 | GENTAMICIN | > 128 µg/mL | > 128 µg/mL | > 128 µg/mL | > 128 µg/mL | > 128 µg/mL | 8 µg/mL | 8 µg/mL | > 128 µg/mL | > 128 µg/mL | 8 µg/mL | > 128 µg/mL | > 128 µg/mL | 8 µg/mL | 2 µg/mL | > 128 µg/mL | 4 µg/mL | > 128 µg/mL | > 128 µg/mL | > 128 µg/mL | > 128 µg/mL | MIC (Pseudomonas aeruginosa [19]): > 128 µg/mL; MIC (Pseudomonas aeruginosa [20]): > 128 µg/mL; MIC (Pseudomonas aeruginosa [21]): > 128 µg/mL; MIC (Pseudomonas aeruginosa [22]): > 128 µg/mL; MIC (Pseudomonas aeruginosa [23]): > 128 µg/mL; MIC (Pseudomonas aeruginosa [24]): > 128 µg/mL; MIC (Pseudomonas aeruginosa [25]): 8 µg/mL; MIC (Pseudomonas aeruginosa [26]): > 128 µg/mL; MIC (Pseudomonas aeruginosa [27]): 8 µg/mL; MIC (Pseudomonas aeruginosa [28]): > 128 µg/mL
3 | C[C@H]1[C@H](NC(=O)/C(=N\OC(C)(C)C(=O)O)c2csc(N)n2)C(=O)N1S(=O)(=O)O [AZTREONAM] |  |  |  |  |  |  |  |  |  |  |  |  |  |  |  | 8 µg/mL (≈ 18.4 µM) |  |  |  |  | Activity (Pseudomonas aeruginosa [29]): 75%
4 | C[C@@H](O)[C@H]1C(=O)N2C(C(=O)O)=C(S[C@@H]3CN[C@H](C(=O)N(C)C)C3)[C@H](C)[C@H]12 [MEROPENEM] | > 32 µg/mL | 8 µg/mL (≈ 20.9 µM) | > 32 µg/mL | > 32 µg/mL | > 32 µg/mL | > 32 µg/mL | 8 µg/mL (≈ 20.9 µM) | > 32 µg/mL | > 32 µg/mL | > 32 µg/mL | > 32 µg/mL | > 32 µg/mL | > 32 µg/mL | 2 µg/mL (≈ 5.22 µM) | > 32 µg/mL | > 32 µg/mL | > 32 µg/mL | > 32 µg/mL | > 32 µg/mL | > 32 µg/mL | MIC (Pseudomonas aeruginosa [19]): > 32 µg/mL; MIC (Pseudomonas aeruginosa [20]): > 32 µg/mL; MIC (Pseudomonas aeruginosa [21]): > 32 µg/mL; MIC (Pseudomonas aeruginosa [22]): > 32 µg/mL; MIC (Pseudomonas aeruginosa [23]): > 32 µg/mL; MIC (Pseudomonas aeruginosa [24]): > 32 µg/mL; MIC (Pseudomonas aeruginosa [25]): > 32 µg/mL; MIC (Pseudomonas aeruginosa [26]): > 32 µg/mL; MIC (Pseudomonas aeruginosa [27]): 8 µg/mL (≈ 20.9 µM); MIC (Pseudomonas aeruginosa [28]): > 32 µg/mL
5 | C[C@H]1COc2c(N3CCN(C)CC3)c(F)cc3c(=O)c(C(=O)O)cn1c23.C[C@H]1COc2c(N3CCN(C)CC3)c(F)cc3c(=O)c(C(=O)O)cn1c23.O [LEVOFLOXACIN] | > 32 µg/mL | > 32 µg/mL | > 32 µg/mL | > 32 µg/mL | > 32 µg/mL | > 32 µg/mL | > 32 µg/mL | > 32 µg/mL | > 32 µg/mL | > 32 µg/mL | > 32 µg/mL | > 32 µg/mL | > 32 µg/mL | > 32 µg/mL | > 32 µg/mL | 0.25 µg/mL | > 32 µg/mL | > 32 µg/mL | > 32 µg/mL | > 32 µg/mL | MIC (Pseudomonas aeruginosa [19]): > 32 µg/mL; MIC (Pseudomonas aeruginosa [20]): > 32 µg/mL; MIC (Pseudomonas aeruginosa [21]): > 32 µg/mL; MIC (Pseudomonas aeruginosa [22]): > 32 µg/mL; MIC (Pseudomonas aeruginosa [23]): > 32 µg/mL; MIC (Pseudomonas aeruginosa [24]): > 32 µg/mL; MIC (Pseudomonas aeruginosa [25]): > 32 µg/mL; MIC (Pseudomonas aeruginosa [26]): > 32 µg/mL; MIC (Pseudomonas aeruginosa [27]): > 32 µg/mL; MIC (Pseudomonas aeruginosa [28]): > 32 µg/mL
